{"source": "PubChem BioAssay (NCI)", "assay_in_all_cases": "NCI tumour cell line growth inhibition, 384-well format", "key": {"COLO 205 colon": {"tested_on": "COLO 205 colon"}, "NCI-H23 lung": {"tested_on": "NCI-H23 lung"}, "M14 melanoma": {"tested_on": "M14 melanoma"}, "BT-549 breast": {"tested_on": "BT-549 breast"}, "SR leukemia": {"tested_on": "SR leukemia"}, "RPMI-8226 leukemia": {"tested_on": "RPMI-8226 leukemia"}, "OVCAR-8 ovarian": {"tested_on": "OVCAR-8 ovarian"}, "IGROV1 ovarian": {"tested_on": "IGROV1 ovarian"}, "U251 glioblastoma": {"tested_on": "U251 glioblastoma"}, "HCC-2998 colon": {"tested_on": "HCC-2998 colon"}, "LOX IMVI melanoma": {"tested_on": "LOX IMVI melanoma"}, "HT29 colon": {"tested_on": "HT29 colon"}, "SF-539 CNS": {"tested_on": "SF-539 CNS"}, "SF-268 CNS": {"tested_on": "SF-268 CNS"}, "KM12 colon": {"tested_on": "KM12 colon"}, "SNB-19 CNS": {"tested_on": "SNB-19 CNS"}, "UACC-62 melanoma": {"tested_on": "UACC-62 melanoma"}, "UACC-257 melanoma": {"tested_on": "UACC-257 melanoma"}, "CCRF-CEM leukemia": {"tested_on": "CCRF-CEM leukemia"}, "HOP-62 NSCLC": {"tested_on": "HOP-62 NSCLC"}, "NCI/ADR-RES ovarian": {"tested_on": "NCI/ADR-RES ovarian"}, "RXF 393 renal": {"tested_on": "RXF 393 renal"}, "NCI-H322M lung": {"tested_on": "NCI-H322M lung"}, "MDA-MB-468 breast": {"tested_on": "MDA-MB-468 breast"}, "OVCAR-4 ovarian": {"tested_on": "OVCAR-4 ovarian"}, "SN12C renal": {"tested_on": "SN12C renal"}, "HCT-15 colon": {"tested_on": "HCT-15 colon"}, "SK-OV-3 ovarian": {"tested_on": "SK-OV-3 ovarian"}, "SK-MEL-28 melanoma": {"tested_on": "SK-MEL-28 melanoma"}, "TK-10 renal": {"tested_on": "TK-10 renal"}, "NCI-H522 lung": {"tested_on": "NCI-H522 lung"}, "NCI-H226 lung": {"tested_on": "NCI-H226 lung"}, "786-0 renal": {"tested_on": "786-0 renal"}, "MDA-MB-231 breast": {"tested_on": "MDA-MB-231 breast"}, "SK-MEL-5 melanoma": {"tested_on": "SK-MEL-5 melanoma"}, "UO-31 renal": {"tested_on": "UO-31 renal"}, "HL-60(TB) leukemia": {"tested_on": "HL-60(TB) leukemia"}, "NCI-H460 NSCLC": {"tested_on": "NCI-H460 NSCLC"}, "SK-MEL-2 melanoma": {"tested_on": "SK-MEL-2 melanoma"}, "SF-295 CNS": {"tested_on": "SF-295 CNS"}, "A498 renal": {"tested_on": "A498 renal"}, "MOLT-4 leukemia": {"tested_on": "MOLT-4 leukemia"}, "MDA-MB-435 melanoma": {"tested_on": "MDA-MB-435 melanoma"}, "OVCAR-3 ovarian": {"tested_on": "OVCAR-3 ovarian"}, "MALME-3M melanoma": {"tested_on": "MALME-3M melanoma"}}, "note": "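GI50 = concentration required for 50% inhibition of growth. Definition used: TGI = concentration required for complete inhibition of growth.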", "data": [{"smiles": "COc1ncnn2ccc(-c3cnc4nc(C)n(Cc5nnc(C(C)F)o5)c4c3)c12", "note": "(stereo not given)", "values": [{"measurement": "GI50", "setting": "COLO 205 colon", "result": 0.0268, "unit": "µM"}, {"measurement": "TGI", "setting": "COLO 205 colon", "result": 0.0675, "unit": "µM"}, {"measurement": "GI50", "setting": "NCI-H23 lung", "result": 0.0197, "unit": "µM"}, {"measurement": "TGI", "setting": "NCI-H23 lung", "result": 0.0469, "unit": "µM"}, {"measurement": "GI50", "setting": "M14 melanoma", "result": 0.185, "unit": "µM"}, {"measurement": "TGI", "setting": "M14 melanoma", "result": 0.334, "unit": "µM"}, {"measurement": "GI50", "setting": "BT-549 breast", "result": 0.0169, "unit": "µM"}, {"measurement": "TGI", "setting": "BT-549 breast", "result": 0.0499, "unit": "µM"}, {"measurement": "GI50", "setting": "SR leukemia", "result": 0.0155, "unit": "µM"}, {"measurement": "TGI", "setting": "SR leukemia", "result": 0.0294, "unit": "µM"}, {"measurement": "GI50", "setting": "RPMI-8226 leukemia", "result": 0.0405, "unit": "µM"}, {"measurement": "TGI", "setting": "RPMI-8226 leukemia", "result": 0.0958, "unit": "µM"}, {"measurement": "GI50", "setting": "OVCAR-8 ovarian", "result": 0.0402, "unit": "µM"}, {"measurement": "TGI", "setting": "OVCAR-8 ovarian", "result": 0.256, "unit": "µM"}, {"measurement": "GI50", "setting": "IGROV1 ovarian", "result": 0.0265, "unit": "µM"}, {"measurement": "TGI", "setting": "IGROV1 ovarian", "result": 0.135, "unit": "µM"}, {"measurement": "GI50", "setting": "U251 glioblastoma", "result": 0.0432, "unit": "µM"}, {"measurement": "TGI", "setting": "U251 glioblastoma", "result": 0.338, "unit": "µM"}, {"measurement": "GI50", "setting": "HCC-2998 colon", "result": 0.0411, "unit": "µM"}, {"measurement": "TGI", "setting": "HCC-2998 colon", "result": 0.196, "unit": "µM"}, {"measurement": "GI50", "setting": "LOX IMVI melanoma", "result": 0.0583, "unit": "µM"}, {"measurement": "TGI", "setting": "LOX IMVI melanoma", "result": 0.161, "unit": "µM"}, {"measurement": "GI50", "setting": "HT29 colon", "result": 0.142, "unit": "µM"}, {"measurement": "TGI", "setting": "HT29 colon", "result": 0.284, "unit": "µM"}, {"measurement": "GI50", "setting": "SF-539 CNS", "result": 0.126, "unit": "µM"}, {"measurement": "TGI", "setting": "SF-539 CNS", "result": 0.286, "unit": "µM"}, {"measurement": "GI50", "setting": "SF-268 CNS", "result": 0.133, "unit": "µM"}, {"measurement": "TGI", "setting": "SF-268 CNS", "result": 0.4, "unit": "µM"}, {"measurement": "GI50", "setting": "KM12 colon", "result": 0.0248, "unit": "µM"}, {"measurement": "TGI", "setting": "KM12 colon", "result": 0.0955, "unit": "µM"}, {"measurement": "GI50", "setting": "SNB-19 CNS", "result": 0.0371, "unit": "µM"}, {"measurement": "TGI", "setting": "SNB-19 CNS", "result": "> 100", "unit": "µM"}, {"measurement": "GI50", "setting": "UACC-62 melanoma", "result": 0.0249, "unit": "µM"}, {"measurement": "TGI", "setting": "UACC-62 melanoma", "result": 0.0807, "unit": "µM"}, {"measurement": "GI50", "setting": "UACC-257 melanoma", "result": 0.0201, "unit": "µM"}, {"measurement": "TGI", "setting": "UACC-257 melanoma", "result": 0.0566, "unit": "µM"}, {"measurement": "GI50", "setting": "CCRF-CEM leukemia", "result": 0.0211, "unit": "µM"}, {"measurement": "TGI", "setting": "CCRF-CEM leukemia", "result": 0.0419, "unit": "µM"}, {"measurement": "GI50", "setting": "HOP-62 NSCLC", "result": 0.0275, "unit": "µM"}, {"measurement": "TGI", "setting": "HOP-62 NSCLC", "result": 0.122, "unit": "µM"}, {"measurement": "GI50", "setting": "NCI/ADR-RES ovarian", "result": 0.154, "unit": "µM"}, {"measurement": "TGI", "setting": "NCI/ADR-RES ovarian", "result": 0.415, "unit": "µM"}, {"measurement": "GI50", "setting": "RXF 393 renal", "result": 0.056, "unit": "µM"}, {"measurement": "TGI", "setting": "RXF 393 renal", "result": 0.188, "unit": "µM"}, {"measurement": "GI50", "setting": "NCI-H322M lung", "result": 0.0822, "unit": "µM"}, {"measurement": "TGI", "setting": "NCI-H322M lung", "result": 0.815, "unit": "µM"}, {"measurement": "GI50", "setting": "MDA-MB-468 breast", "result": 0.0176, "unit": "µM"}, {"measurement": "TGI", "setting": "MDA-MB-468 breast", "result": 0.0434, "unit": "µM"}, {"measurement": "GI50", "setting": "OVCAR-4 ovarian", "result": 0.0572, "unit": "µM"}, {"measurement": "TGI", "setting": "OVCAR-4 ovarian", "result": 0.215, "unit": "µM"}, {"measurement": "GI50", "setting": "SN12C renal", "result": 0.0435, "unit": "µM"}, {"measurement": "TGI", "setting": "SN12C renal", "result": 0.215, "unit": "µM"}, {"measurement": "GI50", "setting": "HCT-15 colon", "result": 0.033, "unit": "µM"}, {"measurement": "TGI", "setting": "HCT-15 colon", "result": 0.147, "unit": "µM"}, {"measurement": "GI50", "setting": "SK-OV-3 ovarian", "result": 0.0287, "unit": "µM"}, {"measurement": "TGI", "setting": "SK-OV-3 ovarian", "result": 0.132, "unit": "µM"}, {"measurement": "GI50", "setting": "SK-MEL-28 melanoma", "result": 0.0519, "unit": "µM"}, {"measurement": "TGI", "setting": "SK-MEL-28 melanoma", "result": 0.184, "unit": "µM"}, {"measurement": "GI50", "setting": "TK-10 renal", "result": 0.0447, "unit": "µM"}, {"measurement": "TGI", "setting": "TK-10 renal", "result": 0.261, "unit": "µM"}, {"measurement": "GI50", "setting": "NCI-H522 lung", "result": 0.0148, "unit": "µM"}, {"measurement": "TGI", "setting": "NCI-H522 lung", "result": 0.052, "unit": "µM"}, {"measurement": "GI50", "setting": "NCI-H226 lung", "result": 0.117, "unit": "µM"}, {"measurement": "TGI", "setting": "NCI-H226 lung", "result": 0.283, "unit": "µM"}, {"measurement": "GI50", "setting": "786-0 renal", "result": 0.116, "unit": "µM"}, {"measurement": "TGI", "setting": "786-0 renal", "result": 0.252, "unit": "µM"}, {"measurement": "GI50", "setting": "MDA-MB-231 breast", "result": 0.0779, "unit": "µM"}, {"measurement": "TGI", "setting": "MDA-MB-231 breast", "result": 0.415, "unit": "µM"}, {"measurement": "GI50", "setting": "SK-MEL-5 melanoma", "result": 0.0154, "unit": "µM"}, {"measurement": "TGI", "setting": "SK-MEL-5 melanoma", "result": 0.045, "unit": "µM"}, {"measurement": "GI50", "setting": "UO-31 renal", "result": 0.103, "unit": "µM"}, {"measurement": "TGI", "setting": "UO-31 renal", "result": 0.27, "unit": "µM"}, {"measurement": "GI50", "setting": "HL-60(TB) leukemia", "result": 0.0515, "unit": "µM"}, {"measurement": "TGI", "setting": "HL-60(TB) leukemia", "result": 0.156, "unit": "µM"}, {"measurement": "GI50", "setting": "NCI-H460 NSCLC", "result": 0.0426, "unit": "µM"}, {"measurement": "TGI", "setting": "NCI-H460 NSCLC", "result": 0.163, "unit": "µM"}, {"measurement": "GI50", "setting": "SK-MEL-2 melanoma", "result": 0.0294, "unit": "µM"}, {"measurement": "TGI", "setting": "SK-MEL-2 melanoma", "result": 0.0772, "unit": "µM"}, {"measurement": "GI50", "setting": "SF-295 CNS", "result": 0.11, "unit": "µM"}, {"measurement": "TGI", "setting": "SF-295 CNS", "result": 0.307, "unit": "µM"}, {"measurement": "GI50", "setting": "A498 renal", "result": 0.0426, "unit": "µM"}, {"measurement": "TGI", "setting": "A498 renal", "result": 0.187, "unit": "µM"}, {"measurement": "GI50", "setting": "MOLT-4 leukemia", "result": 0.0185, "unit": "µM"}, {"measurement": "TGI", "setting": "MOLT-4 leukemia", "result": 0.0334, "unit": "µM"}, {"measurement": "GI50", "setting": "MDA-MB-435 melanoma", "result": 0.0673, "unit": "µM"}, {"measurement": "TGI", "setting": "MDA-MB-435 melanoma", "result": 0.236, "unit": "µM"}, {"measurement": "GI50", "setting": "OVCAR-3 ovarian", "result": 0.0172, "unit": "µM"}, {"measurement": "TGI", "setting": "OVCAR-3 ovarian", "result": 0.0414, "unit": "µM"}, {"measurement": "GI50", "setting": "MALME-3M melanoma", "result": 0.0956, "unit": "µM"}, {"measurement": "TGI", "setting": "MALME-3M melanoma", "result": 0.223, "unit": "µM"}]}]}
